Measured values as given in ChEMBL document CHEMBL1127385, “Synthesis and diuretic activity of alkyl- and arylguanidine analogs of N,N'-dicyclohexyl-4-morpholinecarboxamidine in rats and dogs” (J Med Chem, 1994).

How the values were obtained:
Conditions in all cases: in vivo, po
Rattus norvegicus [1] = assay: Total electrolytic excretion of potassium in urine of rats after peroral administration of 86.9 uM/Kg of drug; assay type: ADME, organism-based
Rattus norvegicus [2] = assay: Total electrolytic excretion of chlorine in urine of rats after peroral administration of 28.9 uM/Kg of drug; assay type: ADME, organism-based
Rattus norvegicus [3] = assay: Tested for the diuretic activity by measuring the urinary volume after peroral administering 86.9 uM/Kg of drug in rats; assay type: ADME, organism-based, Urine
Rattus norvegicus [4] = assay: Ratio of Total electrolytic excretion of sodium and potassium in urine of rats after peroral administration of 86.9 uM/Kg of drug; assay type: ADME, organism-based
Rattus norvegicus [5] = assay: Total electrolytic excretion of sodium in urine of rats after peroral administration of 289 uM/Kg of drug; assay type: ADME, organism-based
Rattus norvegicus [6] = assay: Tested for the diuretic activity by measuring the urinary volume after peroral administering 289 uM/Kg of drug in rats; assay type: ADME, organism-based, Urine
Rattus norvegicus [7] = assay: Total electrolytic excretion of chlorine in urine of rats after peroral administration of 86.9 uM/Kg of drug; assay type: ADME, organism-based
Rattus norvegicus [8] = assay: Total electrolytic excretion of potassium in urine of rats after peroral administration of 28.9 uM/Kg of drug; assay type: ADME, organism-based
Rattus norvegicus [9] = assay: Total electrolytic excretion of sodium in urine of rats after peroral administration of 86.9 uM/Kg of drug; assay type: ADME, organism-based
Rattus norvegicus [10] = assay: Tested for the diuretic activity by measuring the urinary volume after peroral administering 28.9 uM/Kg of drug in rats; assay type: ADME, organism-based, Urine
Rattus norvegicus [11] = assay: Ratio of Total electrolytic excretion of sodium and potassium in urine of rats after peroral administration of 28.9 uM/Kg of drug; assay type: ADME, organism-based
Rattus norvegicus [12] = assay: Total electrolytic excretion of chlorine in urine of rats after peroral administration of 289 uM/Kg of drug; assay type: ADME, organism-based
Rattus norvegicus [13] = assay: Total electrolytic excretion of sodium in urine of rats after peroral administration of 28.9 uM/Kg of drug; assay type: ADME, organism-based
Rattus norvegicus [14] = assay: Ratio of Total electrolytic excretion of sodium and potassium in urine of rats after peroral administration of uM/Kg of drug; assay type: ADME, organism-based
Rattus norvegicus [15] = assay: Total electrolytic excretion of potassium in urine of rats after peroral administration of 289 uM/Kg of drug; assay type: ADME, organism-based
Rattus norvegicus [16] = assay: Total electrolytic excretion of sodium in urine of rats after peroral administration of 27 uM/Kg of drug; assay type: ADME, organism-based
Rattus norvegicus [17] = assay: Total electrolytic excretion of chlorine in urine of rats after peroral administration of 270 uM/Kg of drug; assay type: ADME, organism-based
Rattus norvegicus [18] = assay: Total electrolytic excretion of potassium in urine of rats after peroral administration of 270 uM/Kg of drug; assay type: ADME, organism-based
Rattus norvegicus [19] = assay: Total electrolytic excretion of potassium in urine of rats after peroral administration of 80.9 uM/Kg of drug; assay type: ADME, organism-based
Rattus norvegicus [20] = assay: Tested for the diuretic activity by measuring the urinary volume after peroral administering 27 uM/Kg of drug in rats; assay type: ADME, organism-based, Urine
Rattus norvegicus [21] = assay: Tested for the diuretic activity by measuring the urinary volume after peroral administering 80.9 uM/Kg of drug in rats; assay type: ADME, organism-based, Urine
Rattus norvegicus [22] = assay: Ratio of Total electrolytic excretion of sodium and potassium in urine of rats after peroral administration of 27 uM/Kg of drug; assay type: ADME, organism-based
Rattus norvegicus [23] = assay: Total electrolytic excretion of sodium in urine of rats after peroral administration of 80.9 uM/Kg of drug; assay type: ADME, organism-based
Rattus norvegicus [24] = assay: Total electrolytic excretion of chlorine in urine of rats after peroral administration of 27 uM/Kg of drug; assay type: ADME, organism-based
Rattus norvegicus [25] = assay: Total electrolytic excretion of sodium in urine of rats after peroral administration of 270 uM/Kg of drug; assay type: ADME, organism-based
Rattus norvegicus [26] = assay: Ratio of Total electrolytic excretion of sodium and potassium in urine of rats after peroral administration of 270 uM/Kg of drug; assay type: ADME, organism-based
Rattus norvegicus [27] = assay: Ratio of Total electrolytic excretion of sodium and potassium in urine of rats after peroral administration of 80.9 uM/Kg of drug; assay type: ADME, organism-based
Rattus norvegicus [28] = assay: Total electrolytic excretion of chlorine in urine of rats after peroral administration of 80.9 uM/Kg of drug; assay type: ADME, organism-based
Rattus norvegicus [29] = assay: Total electrolytic excretion of potassium in urine of rats after peroral administration of 27 uM/Kg of drug; assay type: ADME, organism-based
Rattus norvegicus [30] = assay: Tested for the diuretic activity by measuring the urinary volume after peroral administering 270 uM/Kg of drug in rats; assay type: ADME, organism-based, Urine

SMILES: C1CCC(/N=C(/NC2CCCCC2)N2CCSCC2)CC1
- Excretion K+ (Rattus norvegicus [1]): 0.32 m equiv
- Excretion Cl- (Rattus norvegicus [2]): 1.49 m equiv
- V (Rattus norvegicus [3]): 11.3 mL
- Ratio (Rattus norvegicus [4]): 5.7
- Excretion Na+ (Rattus norvegicus [5]): 1.59 m equiv
- V (Rattus norvegicus [6]): 9.2 mL
- Excretion Cl- (Rattus norvegicus [7]): 1.78 m equiv
- Excretion K+ (Rattus norvegicus [8]): 0.36 m equiv
- Excretion Na+ (Rattus norvegicus [9]): 1.81 m equiv
- V (Rattus norvegicus [10]): 9.1 mL
- Ratio (Rattus norvegicus [11]): 3.7
- Excretion Cl- (Rattus norvegicus [12]): 1.51 m equiv
- Excretion Na+ (Rattus norvegicus [13]): 1.32 m equiv
- Ratio (Rattus norvegicus [14]): 5.5
- Excretion K+ (Rattus norvegicus [15]): 0.27 m equiv

SMILES: CC(C)CC/N=C(/NC1CCCCC1)N1CCOCC1
- Excretion Na+ (Rattus norvegicus [16]): 0.85 m equiv
- Excretion Cl- (Rattus norvegicus [17]): 1.01 m equiv
- Excretion K+ (Rattus norvegicus [18]): 0.21 m equiv
- Excretion K+ (Rattus norvegicus [19]): 0.33 m equiv
- V (Rattus norvegicus [20]): 6.6 mL
- V (Rattus norvegicus [21]): 8.4 mL
- Ratio (Rattus norvegicus [22]): 2.7 [Na+]/[K+]
- Excretion Na+ (Rattus norvegicus [23]): 1.28 m equiv
- Excretion Cl- (Rattus norvegicus [24]): 0.96 m equiv
- Excretion Na+ (Rattus norvegicus [25]): 1.12 m equiv
- Ratio (Rattus norvegicus [26]): 5.2 [Na+]/[K+]
- Ratio (Rattus norvegicus [27]): 3.9 [Na+]/[K+]
- Excretion Cl- (Rattus norvegicus [28]): 1.31 m equiv
- Excretion K+ (Rattus norvegicus [29]): 0.31 m equiv
- V (Rattus norvegicus [30]): 5.6 mL
